# Legend:
# [1] = tested on: High Fat+Streptozotocin Induced Mouse Model; assay: High fat+streptozotocin induced mouse steatohepatitis model; format: in vivo, mice; details: for Inhibition Rate (%) on Ballooning Degeneration of Liver Cells: H&E staining score of liver vs model group; for Inhibition Rate (%) on Ballooning Degeneration of Liver Cells / Inhibition Rate (%) on Collagen Accumulation in Liver Tissue / Body Weight / Liver Weight / Liver Weight/Body Weight / Inhibition Rate (%) on Fatty Degeneration: oral once a day for 21 days, compound C 100 mg/kg, telmisartan 50 mg/kg; for Inhibition Rate (%) on Collagen Accumulation in Liver Tissue: Picrosirius red staining score of liver vs model group; for Body Weight / Liver Weight / Liver Weight/Body Weight: at the end of the test; for Body Weight: after fasting; for Inhibition Rate (%) on Fatty Degeneration: oil red O staining score of liver vs model group
# Experimental: Pregnant mice were purchased from Shanghai Lingchang Laboratory Animal Co., Ltd. Thirty 2-day-old newborn male mice were chosen for the test. Each mouse was injected with 200 μg of streptozotocin (STZ, purchased from Sigma) and fed a high-fat diet for 2 weeks from 4-week-old to induce a steatohepatitis model. Meanwhile, another ten mice were selected as a normal group where they were fed a normal diet without injection of STZ. After 2 weeks of high-fat diet feeding, the mice were divided into 3 groups according to their body weights and fasting blood glucose levels: a model group, a compound C administration group, and a telmisartan (purchased from TOKYO CHEMICAL) administration group. Each group underwent once-a-day oral administration of the corresponding substance for 21 consecutive days. The body weights of mice were recorded each day (see FIG. 1A and FIG. 1B), and after the final administration, the body weights of mice after fasting were recorded (see Table 2 and FIG. 2A and FIG. 2B). The animals were euthanized, and their liver tissues were harvested. The liver tissues were weighed and subjected to histologic scoring (blind assessment) in respect of ballooning degeneration, fatty degeneration, and collagen accumulation, etc. Histologic changes were assessed by hematoxylin and eosin (H&E) staining, oil red O staining and Picrosirius red staining of the liver tissues, where the H&E staining was used for assessing the ballooning degeneration of liver cells, the oil red O staining was used for reflecting the fatty degeneration of liver and the Picrosirius red staining was used for assessing collagen accumulation. Relevant scores are shown in FIG. 3A, FIG. 3B and FIG. 3C, and inhibition rates of various histologic changes are shown in Table 3.
# Scoring criteria: fatty degeneration is scored on a scale from 0 to 3, where lesion area <5% is scored as 0, lesion area of 5-33% is scored as 1, lesion area of 33-66% is scored as 2 and lesion area >66% is scored as 3. Ballooning degeneration of liver cells is scored on a scale from 0 to 2, where no ballooning degeneration is scored as 0, little ballooning degeneration is a scored as 1, and ballooning degeneration of most cells or significant ballooning degeneration is scored as 2. Collagen accumulation is scored on a scale from 0 to 4 with reference to the scoring criteria reported in Brunt E M, et al., Hepatology (2011).
# The inhibition rates (%) on fatty degeneration, ballooning degeneration of liver cells and collagen accumulation in liver tissue shown in Table 3 were calculated according to the following formulae, respectively (the normal group was scored as 0): Inhibition rate (%) on fatty degeneration=100%×(the average score of the model group−the average score of the administration group)/(the average score of the model group−the average score of the normal group) Inhibition rate (%) on ballooning degeneration of liver cells=100%×(the average score of the model group−the average score of the administration group)/(the average score of the model group−the average score of the normal group) Inhibition rate (%) on collagen accumulation in liver tissue=100%×(the average score of the model group−the average score of the administration group)/(the average score of the model group−the average score of the normal group)
# [2] = tested on: High Fat+High Cholesterol+Carbon Tetrachloride Induced Mouse Model; assay: High fat+high cholesterol+carbon tetrachloride induced mouse steatohepatitis model; format: in vivo, mice; details: oral once a day, three 21-day courses, compound C 100 mg/kg, telmisartan 10 mg/kg; for Collagen accumulation in liver tissue: Picrosirius red staining, vs model group (compound C p<0.01; telmisartan p>0.05); for Serum cholesterol level / Serum low density lipoprotein level: vs model group (compound C p<0.01)
# Text: Mice which were 8-10 weeks old (purchased from Jiangsu GemPharmatech Co., Ltd.) were fed a western diet (a high fat+high cholesterol feed, purchased from Beijing Hfk Bioscience Co., Ltd.) and injected intraperitoneally with carbon tetrachloride to induce a steatohepatitis model. Experimental animals were randomly divided into 3 groups (8 animals in each group) according to their body weights: a model group (administrated with a vehicle composed of PEG400, Tween-80 and deionized water), a compound C (100 mg/kg) administration group, and a telmisartan (10 mg/kg) administration group. Starting from day 5 (D5) of western diet feeding, each group underwent an intraperitoneal injection of 0.05 ml of 20% CCl4 once a week, for 12 weeks. Starting from day 21, the vehicle, compound C and telmisartan were each administered orally once a day, for three 21-day treatment courses at one-week intervals. Meanwhile, a normal control group was set wherein the mice were fed a normal diet combined with normal drinking water. Peripheral blood was taken from animals 2 h after the final administration, and serum was isolated. The animals were euthanized and their liver tissues were harvested. The serum was mainly used to measure the levels of cholesterol and low density lipoprotein. The liver tissues were stained with Picrosirius red to assess collagen accumulation.
# [3] = tested on: High Fat+High Cholesterol Diet and N-Diethylnitrosamine Induced Rat Model; assay: High fat+high cholesterol diet and N-diethylnitrosamine induced rat model, NAS scoring; format: in vivo, SD rats; details: compound C administration groups (50 mg/kg and 100 mg/kg), intragastric once a day for 49 days; H&E staining; model group score 6
# Experimental: Pregnant SD rats were purchased from Shanghai Jihui Laboratory Animal Care Co., Ltd, and neonatal rats obtained therefrom were used in this study. Forty male neonatal rats were chosen to receive a single injection of N-diethylnitrosamine (DEN, purchased from Sigma) at 2 weeks of age. After the neonatal rats were fed rat milk for 2 weeks, they were randomly divided into 4 groups (10 animals in each group) according to their body weights: a model group (0.5% CMC-Na), a compound C (50 mg/kg) administration group, a compound C (100 mg/kg) administration group, and an obeticholic acid (OCA, purchased from WuXi AppTec (Wuhan), 30 mg/kg) administration group. Each neonatal rat was fed a western diet (a high fat+high cholesterol feed, purchased from Trophic Animal Feed High-Tech Co., Ltd, China, Su Si certificate (2014) No. 06092) for 8 weeks. Meanwhile, another 8 male neonatal rats were selected as a normal group, which were fed rat milk for 4 weeks and then fed a normal diet instead of the high fat+high cholesterol diet. Starting from day 8 of high fat+high cholesterol diet feeding, the vehicle (0.5% CMC-Na), compound C and OCA were each administrated intragastrically once a day, for 49 consecutive days.
# Animals were euthanized 2 h after the final administration, and their liver tissues were harvested. […]
# [4] = tested on: High Fat+High Cholesterol+High Sugar+Carbon Tetrachloride Induced Mouse Model; assay: High fat+high cholesterol+high sugar+carbon tetrachloride induced mouse steatohepatitis model; format: in vivo, mice; details: three 21-day courses; for Collagen accumulation in liver tissue: Picrosirius red staining; for Collagen accumulation in liver tissue / Serum cholesterol level / Serum low density lipoprotein level: oral once a day, compound C 100 mg/kg, telmisartan 10 mg/kg; for Serum cholesterol level / Serum low density lipoprotein level: vs model group (compound C p<0.05)
# Experimental: Mice which were 8-10 weeks old (purchased from Jiangsu GemPharmatech Co., Ltd.) were fed a western diet (a high fat+high cholesterol feed, purchased from Beijing Hfk Bioscience Co., Ltd.) and a high-sugar solution (23.1 g/L D-fructose and 18.9 g/L D-glucose) and injected intraperitoneally with carbon tetrachloride to induce a steatohepatitis model. Starting from day 7 (D7) of western diet+high-sugar solution feeding, the mice were injected intraperitoneally with 0.05 ml of 20% carbon tetrachloride once a week, for 12 weeks. Animals were divided into groups (8 animals in each group) on day 28: a model group (administrated with a vehicle composed of PEG400, Tween-80 and deionized water), a compound C (100 mg/kg) administration group, and a telmisartan (10 mg/kg) administration group. Starting from day 28, the vehicle, compound C and telmisartan were each administered orally once a day, for three 21-day treatment courses at one-week intervals. Meanwhile, a normal control group was set wherein the mice were fed a normal diet combined with normal drinking water. Peripheral blood was taken from animals 2 h after the final administration, and serum was isolated. The animals were euthanized, and their liver tissues were harvested. The serum was mainly used to measure the levels of cholesterol and low density lipoprotein. The liver tissues were stained with Picrosirius red to assess collagen accumulation, and the ratio of endothelial cells to macrophages was measured by flow cytometry to reflect liver damage.
# [5] = tested on: Carbon Tetrachloride Induced Mouse Model; assay: Carbon tetrachloride induced mouse model; format: in vivo, mice; details: Picrosirius red staining
# Experimental: Mice which were 8-10 weeks old (purchased from Jiangsu GemPharmatech Co., Ltd.) were randomly divided into 4 groups (8 animals in each group) according to their body weights: a model group (administrated with a vehicle, 0.5% CMC-Na), a compound C (300 mg/kg) administration group, a compound C (100 mg/kg) administration group, and a telmisartan (10 mg/kg) administration group. Each mouse was injected intraperitoneally with 0.05 ml of 40% CCl4 twice a week, for 6 consecutive weeks. Starting from day 15, each group underwent an intragastric administration of the corresponding substance once a day, for 28 consecutive days. Meanwhile, a normal control group was set wherein the mice in this group were fed a normal diet combined with normal drinking water. Animals were euthanized 2 h after the final administration, and their liver tissues were harvested and stained with Picrosirius red to assess collagen accumulation.
Compound,"Therapeutic effect (fatty degeneration, ballooning degeneration, collagen accumulation of liver tissue) ([1]; 100 mg/kg oral once a day for 21 days)",Inhibition Rate (%) on Ballooning Degeneration of Liver Cells [1],Inhibition Rate (%) on Collagen Accumulation in Liver Tissue [1],Body Weight [1],Liver Weight [1],Liver Weight/Body Weight [1],Inhibition Rate (%) on Fatty Degeneration [1],Collagen accumulation in liver tissue [2],Serum cholesterol level [2],Serum low density lipoprotein level [2],NAS score of liver tissue [3],Collagen accumulation in liver tissue ([4]; vs model group (p<0.01)),"Proportion of endothelial cells in liver tissue ([4]; flow cytometry, vs model group (p<0.01), compound C 100 mg/kg oral once a day)","Proportion of macrophages in liver tissue ([4]; flow cytometry, vs model group, compound C 100 mg/kg oral once a day)",Serum cholesterol level [4],Serum low density lipoprotein level [4],"Collagen accumulation in liver tissue ([5]; 100 mg/kg intragastric once a day for 28 days, vs model group (p<0.001))","Collagen accumulation in liver tissue ([5]; 300 mg/kg intragastric once a day for 28 days, vs model group (p<0.001))","Collagen accumulation in liver tissue ([5]; 10 mg/kg intragastric once a day for 28 days, vs model group (p>0.05))"
Cn1c(C(=O)N2CC(F)(F)C2)cc2ccc(-c3nccc(Nc4ccc(-c5cn[nH]c5)cc4)n3)cc21 [Compound C],significant therapeutic effects,60.00%,44.44%,17.1 ± 0.59 g,872.3 ± 17.91 mg,5.1 ± 0.15%,66.67%,significantly reduced,significantly reduced,significantly reduced,about 4.2,significantly reduced,increased,reduced at a certain extent,significantly reduced,significantly reduced,significantly reduced,significantly reduced,–
"CCCc1nc2c(C)cc(-c3nc4ccccc4n3C)cc2n1Cc1ccc(-c2ccccc2C(=O)O)cc1 [Telmisartan, telmisartan, reference compound]",–,11.12%,38.27%,15.7 ± 0.84 g,760.1 ± 48.78 mg,4.9 ± 0.39%,−11.17%,not inhibited,no effect,no effect,–,significantly reduced,–,–,no effect,no effect,–,–,not inhibited

# From US12485108B2, “Method for treating fatty liver disease and/or steatohepatitis” (BEIJING TIDE PHARMACEUTICAL CO., LTD., priority 2019, dated 2025)
